Reference: PubChem BioAssay AID1259407 (Chemical Carcinogenesis Research Information System (CCRIS), 2018)
Active and inactive are the calls of the source. The rule behind the calls is not given here.

System: CCRIS mutagenicity, Ames/micronucleus/aberration tests
Experiment: CCRIS mutagenicity studies
[1] = Test System: AMES SALMONELLA TYPHIMURIUM, Strain/Indicator: TA98, Metabolic Activation: NONE, Method: STANDARD PLATE
[2] = Test System: AMES SALMONELLA TYPHIMURIUM, Strain/Indicator: TA100, Metabolic Activation: NONE, Method: STANDARD PLATE

Measured: mutagenic call

CC1(C)CON(Cc2ccccc2Cl)C1=O
inactive: End Point: In vivo chromosomal aberrations, Test System: Bone marrow, Species: Rat, Strain/Sex: Sprague-Dawley/Male, Route: Gavage inactive; negative (purity 88.8%) | Test System: Ames Salmonella typhimurium, Strain/Indicator: TA98, Metabolic Activation: None, Method: Standard Plate inactive; negative (purity 92.4%) | Test System: Ames Salmonella typhimurium, Strain/Indicator: TA98, Metabolic Activation: Rat, liver, S-9, Aroclor 1254, Method: Standard Plate inactive; negative (purity 92.4%) | Test System: Ames Salmonella typhimurium, Strain/Indicator: TA100, Metabolic Activation: None, Method: Standard Plate inactive; negative (purity 92.4%) | Test System: Ames Salmonella typhimurium, Strain/Indicator: TA100, Metabolic Activation: Rat, liver, S-9, Aroclor 1254, Method: Standard Plate inactive; negative (purity 92.4%) | Test System: Ames Salmonella typhimurium, Strain/Indicator: TA1535, Metabolic Activation: None, Method: Standard Plate inactive; negative (purity 92.4%) | Test System: Ames Salmonella typhimurium, Strain/Indicator: TA1535, Metabolic Activation: Rat, liver, S-9, Aroclor 1254, Method: Standard Plate inactive; negative (purity 92.4%) | Test System: Ames Salmonella typhimurium, Strain/Indicator: TA1537, Metabolic Activation: None, Method: Standard Plate inactive; negative (purity 92.4%) | Test System: Ames Salmonella typhimurium, Strain/Indicator: TA1537, Metabolic Activation: Rat, liver, S-9, Aroclor 1254, Method: Standard Plate inactive; negative (purity 92.4%) | Test System: Ames Salmonella typhimurium, Strain/Indicator: TA1538, Metabolic Activation: None, Method: Standard Plate inactive; negative (purity 92.4%) | Test System: Ames Salmonella typhimurium, Strain/Indicator: TA1538, Metabolic Activation: Rat, liver, S-9, Aroclor 1254, Method: Standard Plate inactive; negative (purity 92.4%) | Test System: UDS Rat hepatocytes, Strain/Indicator: Thymidine incorporation, Metabolic Activation: None, Method: Autoradiography inactive; negative (purity 88.8%)

O=C(/C=C/c1ccccc1)c1ccc(F)cc1
inactive: [1] inactive; negative | Test System: AMES SALMONELLA TYPHIMURIUM, Strain/Indicator: TA98, Metabolic Activation: RAT, LIVER, S-9, AROCLOR 1254, Method: STANDARD PLATE inactive; negative | [2] inactive; negative | Test System: AMES SALMONELLA TYPHIMURIUM, Strain/Indicator: TA100, Metabolic Activation: RAT, LIVER, S-9, AROCLOR 1254, Method: STANDARD PLATE inactive; negative

O=C(c1ccc(O)cc1)c1ccc(O)cc1
inactive: End Point: In vitro micronucleus, Test System: HepG2 cells, Metabolic Activation: None inactive; negative

CC(=O)Nc1ccnc2ccccc12
inactive: Test System: AMES SALMONELLA TYPHIMURIUM, Strain/Indicator: TA98, Metabolic Activation: NONE, Method: PREINCUBATION inactive; negative | Test System: AMES SALMONELLA TYPHIMURIUM, Strain/Indicator: TA98, Metabolic Activation: RAT, LIVER, S-9, KANECHLOR 500, Method: PREINCUBATION inactive; negative | Test System: AMES SALMONELLA TYPHIMURIUM, Strain/Indicator: TA100, Metabolic Activation: NONE, Method: PREINCUBATION inactive; negative | Test System: AMES SALMONELLA TYPHIMURIUM, Strain/Indicator: TA100, Metabolic Activation: RAT, LIVER, S-9, KANECHLOR 500, Method: PREINCUBATION inactive; negative

c1scc2c1-c1cscc1C1NC21 (stereo not given)
active: [1] active; positive | [2] active; positive

COc1ccc2c(cc3c4c(cc5c(c42)OCO5)CCN3C)c1OC
active: Test System: AMES SALMONELLA TYPHIMURIUM, Strain/Indicator: TA98, Metabolic Activation: RAT, LIVER, S-9, PHENOBARBITAL AND BETA-NAPHTHOFLAVONE, Method: PREINCUBATION active; positive | Test System: AMES SALMONELLA TYPHIMURIUM, Strain/Indicator: TA100, Metabolic Activation: RAT, LIVER, S-9, PHENOBARBITAL AND BETA-NAPHTHOFLAVONE, Method: PREINCUBATION active; positive
